In brackets after ≈: the same amount, converted by molar mass. Non-standard residues stand in square brackets, D forms with d. Residues, ends and D or L forms follow the SMILES beside them. Dopa = N[C@@H](Cc1ccc(O)c(O)c1)C(=O)O
How the values were obtained:
Format in all cases: physicochemical
[1] = dynamic vapor sorption (DVS); conditions: for hygroscopicity (in words): DVS, 40-80% RH; for hygroscopicity, weight gained: between 40-80% RH
Description: Dynamic vapour sorption (DVS) was performed using a Hiden Analytical Instruments IGAsorp Vapour Sorption Balance. Approximately 30 mg of sample was placed into a wire-mesh vapour sorption balance pan, loaded into the IGAsorp vapour sorption balance and held at 25° C.±0.1° C. The sample was subjected to a step profile in 10% increments from 40-90% RH, followed by desorption from 90-0% RH and a second sorption cycle form 0-40% RH. The equilibrium criterion was set to 99.0% step completion within a minimum of 60 minutes and a maximum of 5 hours for each increment. The weight change during the sorption cycle was monitored, allowing for the hygroscopic nature of the sample to be determined. The data collection interval was in seconds.

[2] = solid form stability upon storage at ambient conditions
[3] = aqueous solubility at various pH
[4] = physical stability at 75% RH and 40° C.
[5] = between about 40 to about 80% RH at 25° C.

Q: Which results are given for `N[C@@H](Cc1ccc(O)c(O)c1)C(=O)N[C@@H](Cc1ccc(O)cc1)C(=O)O` [amorphous form, ((S)-2-amino-3-(3,4-dihydroxyphenyl)propanoyl)-L-tyrosine] (H-[Dopa]-Tyr-OH)?
A: hygroscopicity (in words) [1]: hygroscopic; solid form by XRPD following DVS cycling ([1]; XRPD after DVS cycling): converted to Pattern N material; DVS reversable total mass change [1, 5]: about 4.19 wt. %

Q: For `N[C@@H](Cc1ccc(O)c(O)c1)C(=O)N[C@@H](Cc1ccc(O)cc1)C(=O)O` [Form G, ((S)-2-amino-3-(3,4-dihydroxyphenyl)propanoyl)-L-tyrosine] (H-[Dopa]-Tyr-OH), which “hygroscopicity, weight gained” value [1] is on record?
A: 2.6 % w/w

Q: And the “DVS reversable total mass change” value [1, 5]?
A: about 2.6 wt. %

Q: For `N[C@@H](Cc1ccc(O)c(O)c1)C(=O)N[C@@H](Cc1ccc(O)cc1)C(=O)O` [Form C, ((S)-2-amino-3-(3,4-dihydroxyphenyl)propanoyl)-L-tyrosine] (H-[Dopa]-Tyr-OH), which “form conversion upon storage” value [2] is on record?
A: converted to Form G

Q: With `N[C@@H](Cc1ccc(O)c(O)c1)C(=O)N[C@@H](Cc1ccc(O)cc1)C(=O)O` [Form D, ((S)-2-amino-3-(3,4-dihydroxyphenyl)propanoyl)-L-tyrosine] (H-[Dopa]-Tyr-OH) as the molecule, how does the “form conversion upon storage” value [2] read?
A: converted to Form N

Q: Which “DVS reversable total mass change” value ([1]; between about 0 to about 90% RH at 25° C.) does the source give for `N[C@@H](Cc1ccc(O)c(O)c1)C(=O)N[C@@H](Cc1ccc(O)cc1)C(=O)O` [Form E, ((S)-2-amino-3-(3,4-dihydroxyphenyl)propanoyl)-L-tyrosine] (H-[Dopa]-Tyr-OH) here?
A: about 8 wt. %

Q: What about the “form conversion upon storage” value [2] of the same molecule?
A: converted to Form B

Q: Which solubility ([3]; aqueous medium, pH 3.27, aqueous buffer, pH of about 3.27) does the source give for `N[C@@H](Cc1ccc(O)c(O)c1)C(=O)N[C@@H](Cc1ccc(O)cc1)C(=O)O` [Form N, ((S)-2-amino-3-(3,4-dihydroxyphenyl)propanoyl)-L-tyrosine] (H-[Dopa]-Tyr-OH) here?
A: ~2860 µg/mL (≈ 7.94 mM)

Q: And the solubility ([3]; aqueous medium, pH 3.83, aqueous buffer, pH of about 3.83)?
A: ~1640 µg/mL (≈ 4.55 mM)

Q: And the solubility ([3]; aqueous medium, pH 3.92, aqueous buffer, pH of about 3.92)?
A: ~1540 µg/mL (≈ 4.27 mM)

Q: What about the solubility ([3]; aqueous medium, pH 4.68, aqueous buffer, pH of about 4.68) of the same molecule?
A: ~1330 µg/mL (≈ 3.69 mM)

Q: And the solubility ([3]; aqueous medium, pH 5, aqueous buffer, pH of about 5.00)?
A: ~1290 µg/mL (≈ 3.58 mM)

Q: What about the solubility ([3]; aqueous medium, pH 6.04, aqueous buffer, pH of about 6.04) of the same molecule?
A: ~1370 µg/mL (≈ 3.8 mM)

Q: What about the solubility ([3]; aqueous solution, pH 1.17, simulated gastric fluid, pH of about 1.17) of the same molecule?
A: ~184000 µg/mL (≈ 512 mM)

Q: What about the solubility ([3]; aqueous solution, pH 2.6, aqueous buffer, pH of about 2.60) of the same molecule?
A: ~9460 µg/mL (≈ 26.3 mM)

Q: What about the solubility ([3]; aqueous solution, pH 3, aqueous buffer, pH of about 3.00) of the same molecule?
A: ~4060 µg/mL (≈ 11.3 mM)

Q: What about the solubility ([3]; aqueous solution, pH 6.78, aqueous buffer, pH of about 6.78) of the same molecule?
A: ~510 µg/mL (≈ 1.42 mM)

Q: What about the solubility ([3]; aqueous solution, pH 7.56, aqueous buffer, pH of about 7.56) of the same molecule?
A: ~18900 µg/mL (≈ 52.3 mM)

Q: What about the solubility ([3]; aqueous solution, pH 8.69, aqueous buffer, pH of about 8.69) of the same molecule?
A: ~111000 µg/mL (≈ 309 mM)

Q: And the solubility ([3]; aqueous solution, pH 9.43, aqueous buffer, pH of about 9.43)?
A: ~58700 µg/mL (≈ 163 mM)

Q: What about the solubility ([3]; aqueous solution, pH 10.26, aqueous buffer, pH of about 10.26) of the same molecule?
A: ~155000 µg/mL (≈ 431 mM)

Q: What about the “hydrate stability, water loss at low RH” value ([1]; DVS analysis, compared with Form G) of the same molecule?
A: more stable hydrate

Q: And the “hygroscopicity (in words)” value [1]?
A: less hygroscopic

Q: What about the “hygroscopicity, weight gained” value [1] of the same molecule?
A: 0.6 % w/w

Q: What about the “DVS reversable total mass change” value [1, 5] of the same molecule?
A: about 0.6 wt. %

Q: And the physical stability [4]?
A: physically stable

Reference: US20250243242A1, “LEVODOPA TYROSINE POLYMORPHS” (NeuroDerm, Ltd., priority 2022, published 2025)
